For four compounds, IC50 and viability, T/C results are on record in PubChem BioAssay AID1918943 (Molecular Pharmacology Branch, DTP, NCI, 2023).

This assay has as its system 855422-203-R-J1-PDC complex spheroid viability. The assay is described as follows: Anticancer human tumor 855422-203-R-J1-PDC patient-derived bladder carcinoma cell line growth inhibition. The following applies: for viability, T/C: stronger effect = lower value. The source says: Multicellular complex tumor spheroid response to LSD1 Inhibitor Iadademstat in combination with a variety of drugs and investigational agents in selected tumor cell lines
The current study was undertaken to assess response to LSD1 inhibitors in combination with standard-of-care drugs and investigational agents in solid tumor complex spheroid models as well as in the K-562 leukemia. Complex spheroids include a stromal component modeled by human endothelial cells (HUVEC) and fibroblasts modeled by human mesenchymal stem cells (MSCs). The concentration ranges selected for each drug and investigational agent were based upon clinically achievable concentrations if the clinical Cmax of the agent was known.
Compounds. The drugs and investigational agents used in this study are listed on Table 1. All of the agents used, including staurosporine (NSC755774) and gemcitabine (NSC613327), were obtained from the Developmental Therapeutics Program, NCI. FDA-approved anticancer drugs are available from the NCI at http://dtp.nci.nih.gov/branches/dscb/oncology_drugset_explanation.html. Drugs and investigational agents were >95% pure by proton nuclear magnetic resonance (NMR) and liquid chromatography/mass spectrometry (LC/MS). Stock solutions were prepared at 400x in DMSO, stored at -70 degrees C, and diluted in fresh medium prior to their use. The final concentration of DMSO in cell culture wells never exceeded 0.25% (v/v). The FDA-approved anticancer drug set is available from the Developmental Therapeutics Program at https://dtp.cancer.gov/organization/dscb/obtaining/available_plates.htm. All drugs and investigational agents were tested over a range starting from a high concentration at or near the clinical Cmax and decreasing in half-log increments. If the clinical Cmax for an agent had not been determined, the highest concentration tested was 10 microM.
Cell Lines. The patient-derived cancer cell (PDC) lines: 292921-168-R-J2-PDC, K24384-001-R-PDC, and 521955-158-R2-J5-PDC pancreatic carcinomas, 556581-035-R-J1 ovarian carcinoma, 324938-238-R-J1-PDC, 855422-203-R-J1-PDC and 883617-216-R-J1-PDC urothelial bladder carcinomas, 743489-274-T-PDC renal cell carcinoma, 138582-R-J1 Merkel cell tumor, K60290-347-R-J1 and K57222-313-R-J1-PDC glioblastomas, 653999-131-R-J2-PDC, LG0703-F948-PDC, and 349418-098-R-PDC non-small cell lung carcinomas, 885512-296-R-J2-PDC, 171881-019-R-J1-PDC breast carcinomas and 186277-243-T-J2-PDC and 233499-124-R-J2-PDC colon carcinomas were obtained from the NCI Patient-Derived Models Repository (PDMR, https://pdmr.cancer.gov). The established cell lines NCI/ADR-RES (RRID:CVCL_14520 and OVCAR-5 (RRID:CVCL_1628) ovarian carcinomas, 786-O (RRID:CVCL_1051) and A498 (RRID:CVCL_A498) renal cell carcinoma, NCI-H211 (ATCC, cat. CRL-5824; RRID:CVCL_1529), NCI-H196 (ATCC, cat. CRL-5823, RRID:CVCL_1509), SW 1271 (ATCC, cat. CRL-2177, RRID:CVCL_1716) and NCI-H1876 (ATCC, cat. CRL-5902, RRID:CVCL_1503) small cell lung carcinomas, MDA-MB-231 (RRID:CVCL_0062) and MDA-MB-468 (RRID:CVCL_0419)breast carcinomas (10-12). Pooled donor human umbilical vein endothelial cells (HUVEC, Lonza, cat. CC-2519) and human mesenchymal stem cells (hMSC, Lonza, cat. PT-2501) were purchased from Lonza (Walkersville, MD).
Cell Culture. All cells were maintained in an incubator at 37 degrees C and 5% CO2 with 95% humidity. The PDC lines were cultured according to standard operating procedures established by the NCI PDMR (https://pdmr.cancer.gov). Briefly all PDCs were thawed and cultured in Matrigel-coated flasks prepared with a working solution of 1X Ham's F-12 nutrient mix, without supplementation (Invitrogen, Waltham, MA, cat. 11765054), 100 U/mL penicillin-streptomycin (Invitrogen, cat. 15140122), and 2.5% Matrigel (Corning Inc., Corning, NY, cat. 354248) for the first three passages. […]

[1] abbreviates: curve of first compound, second compound 0.1 µM.
The mark [2] stands for this setting: curve of first compound, second compound 0.316 µM.
The mark [3] stands for this setting: curve of first compound, second compound 1 µM.
The mark [4] stands for this setting: curve of first compound, second compound 3.16 µM.
Setting [5] is: curve of first compound, second compound 10 µM.
Where [6] appears, read: second compound 0.1 µM, first compound 0.00949 µM.
The mark [7] stands for this setting: second compound 0.1 µM, first compound 0.03 µM.
The mark [8] stands for this setting: second compound 0.1 µM, first compound 0.0949 µM.
Where [9] appears, read: second compound 0.1 µM, first compound 0.3 µM.
Setting [10] is: second compound 0.316 µM, first compound 0.00949 µM.
The mark [11] stands for this setting: second compound 0.316 µM, first compound 0.03 µM.
[12] abbreviates: second compound 0.316 µM, first compound 0.0949 µM.
The mark [13] stands for this setting: second compound 0.316 µM, first compound 0.3 µM.
[14] abbreviates: second compound 1 µM, first compound 0.00949 µM.
Setting [15] is: second compound 1 µM, first compound 0.03 µM.
Where [16] appears, read: second compound 1 µM, first compound 0.0949 µM.
Where [17] appears, read: second compound 1 µM, first compound 0.3 µM.
Setting [18] is: second compound 3.16 µM, first compound 0.00949 µM.
The mark [19] stands for this setting: second compound 3.16 µM, first compound 0.03 µM.
The mark [20] stands for this setting: second compound 3.16 µM, first compound 0.0949 µM.
Setting [21] is: second compound 3.16 µM, first compound 0.3 µM.
Where [22] appears, read: second compound 10 µM, first compound 0.00949 µM.
[23] abbreviates: second compound 10 µM, first compound 0.03 µM.
[24] abbreviates: second compound 10 µM, first compound 0.0949 µM.
[25] abbreviates: second compound 10 µM, first compound 0.3 µM.

A word on the IC50: it is the concentration that gives 50% inhibition. In general, viability, T/C refers to the ratio of treated to control.

Several values for one entry are separate records, joined by “and”; a condition that tells them apart may be missing. Equal values may be shown once.
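Also: drug exposure lasted 7 days starting on day 3 after seeding.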
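For viability, T/C in this document: luminescence viability as percent of DMSO vehicle wells = 100%.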

In the case of `CCN(c1cc(-c2ccc(CN3CCOCC3)cc2)cc(C(=O)NCc2c(C)cc(C)[nH]c2=O)c1C)C1CCOCC1` + NC1CCC(NC2CC2c2ccccc2)CC1, the 50% inhibitory concentration (IC50) by setting is: under setting [1], more than 3000 nM; under setting [2], more than 3000 nM; under setting [3], more than 3000 nM; under setting [4], more than 3000 nM; under setting [5], more than 3000 nM. For the same compound, the viability, T/C is 86.3% under setting [6]; 103% under setting [7]; 87% under setting [8]; 86.7% under setting [9]; 91.4% (second compound 0.1 µM, first compound 0.949 µM); 82.9% (second compound 0.1 µM, first compound 3 µM). Also, the viability, T/C under setting [10] was 85.3%; the viability, T/C under setting [11] was 95.9%; the viability, T/C under setting [12] is 96.2%; the viability, T/C under setting [13] was 91.4%; the viability, T/C (second compound 0.316 µM, first compound 0.949 µM) was 89.9%; the viability, T/C (second compound 0.316 µM, first compound 3 µM) is 91.1%. Also, the viability, T/C reads like this: under setting [14], 92.3%; under setting [15], 92.7%; under setting [16], 93.5%; under setting [17], 88.3%; (second compound 1 µM, first compound 0.949 µM) 86.3%; (second compound 1 µM, first compound 3 µM) 91.8%. In addition, the viability, T/C is, setting by setting: under setting [18], 91.3%; under setting [19], 90.5%; under setting [20], 83.3%; under setting [21], 87.6%; (second compound 3.16 µM, first compound 0.949 µM) 82%; (second compound 3.16 µM, first compound 3 µM) 95.9%. Besides, the viability, T/C reads like this: under setting [22], 84.1%; under setting [23], 82.6%; under setting [24], 79.4%; under setting [25], 79.5%; (second compound 10 µM, first compound 0.949 µM) 82.7%; (second compound 10 µM, first compound 3 µM) 83.7%.
Take `Cn1ncnc1C1c2n[nH]c(=O)c3cc(F)cc(c23)NC1c1ccc(F)cc1` (centres undefined): the viability, T/C is 114% and 96.5% (compound 0.000316 µM); 89% and 83.3% (compound 0.001 µM); 95.8% and 84.2% (compound 0.00316 µM); 95.8% and 73.8% (compound 0.01 µM); 89.2% and 86.2% (compound 0.0316 µM); 81.8% and 86.8% (compound 0.1 µM). In addition, the IC50 (curve of compound) is more than 100 nM.
Regarding `Nc1ccn(C2OC(CO)C(O)C2(F)F)c(=O)n1` (centres undefined) + NC1CC1c1ccc(-c2cccc(O)c2)cc1, the IC50 under setting [1] amounted to 2.84 nM; the IC50 under setting [2] is 3.19 nM; the IC50 under setting [3] was 2.95 nM; the IC50 under setting [4] is 2.25 nM; the IC50 under setting [5] came to 3.01 nM. The viability, T/C is 84.7% (second compound 0.1 µM, first compound 0.000949 µM); 46.3% (second compound 0.1 µM, first compound 0.003 µM); 33.9% under setting [6]; 25.2% under setting [7]; 22.6% under setting [8]; 18.3% under setting [9]. Also, the viability, T/C (second compound 0.316 µM, first compound 0.000949 µM) was 86.9%; the viability, T/C (second compound 0.316 µM, first compound 0.003 µM) is 49%; the viability, T/C under setting [10] is 34.2%; the viability, T/C under setting [11] was 26.7%; the viability, T/C under setting [12] was 19.9%; the viability, T/C under setting [13] is 17.1%. Also, the viability, T/C is, setting by setting: (second compound 1 µM, first compound 0.000949 µM) 76%; (second compound 1 µM, first compound 0.003 µM) 48.5%; under setting [14], 36%; under setting [15], 25%; under setting [16], 20.4%; under setting [17], 20.6%. For the same compound, the viability, T/C is, setting by setting: (second compound 3.16 µM, first compound 0.000949 µM) 76.8%; (second compound 3.16 µM, first compound 0.003 µM) 36.9%; under setting [18], 33.3%; under setting [19], 25.1%; under setting [20], 17.8%; under setting [21], 18.8%. The viability, T/C is, setting by setting: (second compound 10 µM, first compound 0.000949 µM) 77.4%; (second compound 10 µM, first compound 0.003 µM) 46.4%; under setting [22], 38%; under setting [23], 28%; under setting [24], 23.3%; under setting [25], 18.5%.
Consider `CC(C)CC(NC(=O)C(Cc1ccccc1)NC(=O)c1cnccn1)B(O)O` (centres undefined), for which the viability, T/C was 90.9% and 115% (compound 0.000316 µM); 2.15% and 1.03% (compound 0.001 µM); 0.11% and 0.13% (compound 0.00316 µM); 0.1% and 0.12% (compound 0.01 µM); 0.09% and 0.13% (compound 0.0316 µM); 0.14% and 0.2% (compound 0.1 µM). The IC50 (curve of compound) is 0.538 nM and 0.61 nM.
